Patent publication US12692254B2, “Benzimidazole inhibitors of PAD enzymes” (BRISTOL-MYERS SQUIBB COMPANY, priority 2018, dated 2026)

biological target: human PAD4 (hPAD4) (Homo sapiens, UniProt Q9UM07); experiment: RFMS human PAD4 functional assay (rapid-fire mass spectrum); format: biochemical; conditions: 5 nM hPAD4 enzyme, 250 μM BAEE, 50 μM Calcium; 30 min preincubation, 90 min reaction at 37° C.
Description: Compounds of the present invention were assayed as inhibitors of PAD4 using the assay protocol described below.
RFMS tinman PAD4 Functional Assay:
Compounds were solubilized in 100% DMSO to achieve a 10 mM compound concentration. Compound stock solutions were stored at RT. A series of dilutions were prepared in DMSO and mixed 8 times with 20 μl, mixing volume. Final top concentration of compound in the assay is 50 μM. […] 1-90 min enzyme/substrate reaction, 30 min reaction with phenyl glyoxal at 37° C. • Stop solution: 40 μl 5% TCA in ACN
0.13 μL of compound solution was added to 13 μL of 10 nM PAD4 in assay buffer. After 30 min 13 μl of 500 μM of BAEE was added in 25 mM hepes, pH 7.5, 5 mM NaCl, 1 mM DTT, 0.2 mg/ml BS A, 0.01% CHAPS, 50 μM Calcium, 5 μM TPEN was added and the reaction incubated for 90 min at 37° C. The enzymatic reaction was quenched by addition of 15 μl of 6.1N TCA, 100% Final Concentration is 20%, 35 μl of 8.5 mM phenyl glyoxal (final concentration 4 mM) is then added and the reaction is incubated for 30 min at 37° C.
After 30 minutes the plates are spun down to remove all precipitate. The enzyme reaction was quenched with an equal volume of methanol containing internal standard (modified citrulline). Samples were loaded onto the Rapid Fire RF300 system (Agilent) wherein they were first sipped for 1000 ms and then directly loaded to a C18 separations cartridge using a mixture of acetonitrile containing 0.01% formic acid for 3000 ms desalting. The flow rate of the mobile phase was 1.5 ml/min.
The dwell time for each transition was set at 200 ms, and the ESI voltage was used at 5500 with a source temperature of 400° C. Extracted ion peaks for each transition were integrated using the Rapid Fire Integrator software. Peak area of analyte was normalized with internal standard).

Sequence of human PAD4 (hPAD4) (Q9UM07 whole entry): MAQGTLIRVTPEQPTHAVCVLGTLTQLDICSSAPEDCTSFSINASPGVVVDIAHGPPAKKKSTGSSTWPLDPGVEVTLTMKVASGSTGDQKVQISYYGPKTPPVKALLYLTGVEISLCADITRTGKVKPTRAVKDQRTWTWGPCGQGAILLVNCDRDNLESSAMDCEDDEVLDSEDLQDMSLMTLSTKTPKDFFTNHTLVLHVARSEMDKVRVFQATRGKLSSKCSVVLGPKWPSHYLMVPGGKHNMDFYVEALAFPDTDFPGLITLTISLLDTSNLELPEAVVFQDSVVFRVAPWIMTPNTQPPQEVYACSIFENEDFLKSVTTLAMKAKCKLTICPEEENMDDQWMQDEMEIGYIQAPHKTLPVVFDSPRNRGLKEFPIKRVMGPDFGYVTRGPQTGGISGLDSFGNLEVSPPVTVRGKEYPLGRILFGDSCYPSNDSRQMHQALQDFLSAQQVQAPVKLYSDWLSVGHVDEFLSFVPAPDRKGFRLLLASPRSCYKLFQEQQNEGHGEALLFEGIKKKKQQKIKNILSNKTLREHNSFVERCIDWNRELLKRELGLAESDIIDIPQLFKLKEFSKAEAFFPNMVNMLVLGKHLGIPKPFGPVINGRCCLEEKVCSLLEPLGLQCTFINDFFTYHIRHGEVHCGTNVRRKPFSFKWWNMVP

Compound	IC50 [nM]
5-(4-((5-((1R,4R,7R)-7-amino-2-azabicyclo[2.2.1]heptane-2-carbonyl)-2-(1-(cyclopropylmethyl)-1H-pyrrolo[2,3-b]pyridin-2-yl)-7-methoxy-1H-benzo[d]imidazol-1-yl)methyl)piperdine-1-carbonyl)pyrimidine-2-carbonitrile [Example 194]	74
6-[(3S)-3-({5-[(1R,4R,7R,)-7- amino-2- azabicyc1o[2.2.1]heptane-2- carbonyl]-7-methoxy-2-{1- methyl-1H-pyrrolo[2,3- b]pyridin-2-yl}-1H-1,3- benzodiazol-1- yl}methyl)pyrrolidin-1- yl]pyrazine-2-carbonitrile [Example 235]	366
COc1cc(C(=O)N2CC3CCC2[C@@H]3N)cc2nc(-c3cc4ccccc4n3CC3CC3)n(CC3CCS(=O)(=O)C3)c12 (mixture of isomers) [Example 258, rac-((7R)-7-amino-2-azabicyclo[2.2.1]heptan-2-yl)(2-(1-(cyclopropylmethyl)-1H-indol-2-yl)-1-((1,1-dioxidotetrahydrothiophen-3-yl)methyl)-7-methoxy-1H-benzo[d]imidazol-5-yl)methanone]	43
COc1cc(C(=O)N2CC3CCC2[C@@H]3N)cc2nc(-c3cc4ccccc4n3CC3CC3)n(CC3CC(=O)N(C)C3)c12 (mixture of isomers) [Example 262, 4-({5-[(1R,4R,7R)-7-amino-2-azabicyclo[2.2.1]heptane-2-carbonyl]-2-[1-(cyclopropylmethy!)-1H-indol-2-yl]-7-methoxy-1H-1,3-benzodiazol-1-yl}methyl)-1-methylpyrrolidin-2-one]	55
COc1cc(C(=O)N2C[C@H](N)C[C@@H](F)C2)cc2nc(-c3cc4ccccc4n3CC3CC3)n(CC3CC(=O)N(C)C3)c12 (mixture of isomers) [Example 281, 4-({5-[(3R,5R)-3-amino-5-fluoropiperidine-1-carbonyl]-2-[1-(cyclopropylmethyl)-1H-indol-2-yl]-7-methoxy-1H-1,3-benzodiazol-1-yl}methyl)-1-methylpyrrolidin-2-one]	649
COc1cc(C(=O)N2CC3CCC2[C@@H]3N)cc2nc(-c3cc4ccccc4n3CC3CC3)n(CC3CCN(c4ncccn4)C3)c12 (stereo in doubt) [Example 228, (1R,4R,7R)-2-{2-[1-(cyclopropylmethyl)-1H-indol-2-yl]-7-methoxy-1-{[(3S)-1-(pyrimidin-2-yl)pyrrolidin-3-yl]methyl}-1H-1,3-benzodiazole-5-carbonyl}-2-azabicyclo[2.2.1]heptan-7-amine]	99
COc1cc(C(=O)N2CC3CCC2[C@@H]3N)cc2nc(-c3cc4cccnc4n3CC3CC3)n(CC3CCN(c4ncccn4)C3)c12 (stereo in doubt) [Example 231, (1R,4R,7R)-2-{2-[1-(cyclopropylmethyl)-1H-pyrrolo[2,3-b]pyridin-2-yl]-7-methoxy-1-{[(3S)-1-(pyrimidin-2-yl)pyrrolidin-3-yl]methyl}-1H-1,3-benzodiazole-5-carbonyl}-2-azabicyclo [2.2.1]heptan-7-amine]	203
COc1cc(C(=O)N2CC3CCC2[C@@H]3N)cc2nc(-c3cc4cccnc4n3CC3CC3)n(CC3CCN(c4ncccn4)C3)c12 (stereo in doubt) [Example 234, (1R,4R,7R)-2-{2-[1-(cyclopropylmethyl)-1H-pyrrolo[2,3-b]pyridin-2-yl]-7-methoxy-1-{[(3R)-1-(pyrimidin-2-yl)pyrrolidin-3-yl]methyl}-1H-1,3-benzodiazole-5-carbonyl}-2-azabicyclo[2.2.1]heptan-7-amine]	332
COc1cc(C(=O)N2C[C@H]3CC[C@@H]2[C@@H]3N)cc2nc(-c3cc4ccccc4n3CC3CC3)n(CC3CN(c4ccnc(C#N)n4)C3)c12 [Example 1, 4-(3-((5-((1R,4R,7R)-7-amino-2-azabicyclo[2.2.1]heptane-2-carbonyl)-2-(1-(cyclopropylmethyl)-1H-indol-2-yl)-7-methoxy-1H-benzo[d]imidazol-1-yl)methyl)azetidin-1-yl)pyrimidine-2-carbonitrile]	14
COc1ccc2cc(-c3nc4cc(C(=O)N5C[C@H]6CC[C@@H]5[C@@H]6N)cc(OC)c4n3CC3CN(c4ccnc(C#N)n4)C3)n(CC3CC3)c2n1 [Example 2, 4-(3-((5-((1R,4R,7R)-7-amino-2-azabicyclo[2.2.1]heptane-2-carbonyl)-2-(1-(cyclopropylmethyl)-6-methoxy-1H-pyrrolo[2,3-b]pyridin-2-yl)-7-methoxy-1H-benzo[d]imidazol-1-yl)methyl)azetidin-1-yl)pyrimidine-2-carbonitrile]	49
COc1cc(C(=O)N2C[C@H]3CC[C@@H]2[C@@H]3N)cc2nc(-c3cc4cccnc4n3CC3CC3)n(CC3CN(c4cncc(C#N)n4)C3)c12 [Example 3, 6-(3-((5-((1R,4R,7R)-7-amino-2-azabicyclo[2.2.1]heptane-2-carbonyl)-2-(1-(cyclopropylmethyl)-1H-pyrrolo[2,3-b]pyridin-2-yl)-7-methoxy-1H-benzo[d]imidazol-1-yl)methyl)azetidin-1-yl)pyrazine-2-carbonitrile]	55
COc1cc(C(=O)N2C[C@H](N)C[C@@H](F)C2)cc2nc(-c3cc4ccccc4n3CC3CC3)n(CC3CN(c4ccnc(C#N)n4)C3)c12 [Example 4, 4-(3-((5-((3R,5R)-3-amino-5-fluoropiperidine-1-carbonyl)-2-(1-(cyclopropylmethyl)-1H-indol-2-yl)-7-methoxy-1H-benzo[d]imidazol-1-yl)methyl)azetidin-1-yl)pyrimidine-2-carbonitrile]	35
COc1cc(C(=O)N2C[C@H]3CC[C@@H]2[C@@H]3N)cc2nc(-c3cc4cccnc4n3CC3CC3)n(CC3CN(c4ccnc(C#N)n4)C3)c12 [Example 5, 4-[3-({5-[(1R,4R,7R)-7-amino-2-azabicyclo[2.2.1]heptane-2-carbonyl]-2-[1-(cyclopropylmethyl)-1H-pyrrolo[2,3-b]pyridin-2-yl]-7-methoxy-1H-1,3-benzodiazol-1-yl}methyl)azetidin-1-yl]pyrimidine-2-carbonitrile]	51
COc1cc(C(=O)N2C[C@H]3CC[C@@H]2[C@@H]3N)cc2nc(-c3cc4ccccc4n3C)n(CC3CN(c4ccnc(C)n4)C3)c12 [Example 6, ((1R,4R,7R)-7-amino-2-azabicyclo[2.2.1]heptan-2-yl)(7-methoxy-2-(1-methyl-1H-indol-2-yl)-1-((1-(2-methylpyrimidin-4-yl)azetidin-3-yl)methyl)-1H-benzo[d]imidazol-5-yl)methanone]	78
COc1cc(C(=O)N2C[C@H]3CC[C@@H]2[C@@H]3N)cc2nc(-c3cc4cccnc4n3CC3CC3)n(CC3CN(c4cncc(C#N)c4)C3)c12 [Example 7, 5-[3-({5-[(1R,4R,7R)-7-amino-2-azabicyclo[2.2.1]heptane-2-carbonyl]-2-[1-(cyclopropylmethyl)-1H-pyrrolo[2,3-b]pyridin-2-yl]-7-methoxy-1H-1,3-benzodiazol-1-yl}methyl)azetidin-1-yl]pyridine-3-carbonitrile]	94
COc1cc(C(=O)N2C[C@H]3CC[C@@H]2[C@@H]3N)cc2nc(-c3cc4ccc(Cl)cc4n3CC3CC3)n(CC3CN(c4ccnc(C(N)=O)n4)C3)c12 [Example 8, 4-[3-({5-[(1R,4R,7R)-7-amino-2-azabicyclo[2.2.1]heptane-2-carbonyl]-2-[6-chloro-1-(cyclopropylmethyl)-1H-indol-2-yl]-7-methoxy-1H-1,3-benzodiazol-1-yl}methyl)azetidin-1-yl]pyrimidine-2-carboxamide]	18
COc1cc(C(=O)N2C[C@H]3CC[C@@H]2[C@@H]3N)cc2nc(-c3cc4ccc(Cl)cc4n3CC3CC3)n(CC3CN(c4ccnc(C)n4)C3)c12 [Example 9, (1R,4R,7R)-2-{2-[6-chloro-1-(cyclopropylmethyl)-1H-indol-2-yl]-7-methoxy-1-{[1-(2-methylpyrimidin-4-yl)azetidin-3-yl]methyl}-1H-1,3-benzodiazole-5-carbonyl}-2-azabicyclo[2.2.1]heptan-7-amine]	21
COc1cc(C(=O)N2C[C@H]3CC[C@@H]2[C@@H]3N)cc2nc(-c3cc4ccccc4n3C)n(CC3CN(c4ccnc(C#N)n4)C3)c12 [Example 10, 4-[3-({5-[(1R,4R,7R)-7-amino-2-azabicyclo[2.2.1]heptane-2-carbonyl]-7-methoxy-2-(1-methyl-1H-indol-2-yl)-1H-1,3-benzodiazol-1-yl}methyl)azetidin-1-yl]pyrimidine-2-carbonitrile]	32
COc1cc(C(=O)N2C[C@H]3CC[C@@H]2[C@@H]3N)cc2nc(-c3cc4ccccc4n3CC3CC3)n(CC3CN(c4cncnc4C#N)C3)c12 [Example 11, 5-[3-({5-[(1R,4R,7R)-7-amino-2-azabicyclo[2.2.1]heptane-2-carbonyl]-2-[1-(cyclopropylmethyl)-1H-indol-2-yl]-7-methoxy-1H-1,3-benzodiazol-1-yl}methyl)azetidin-1-yl]pyrimidine-4-carbonitrile]	37
